Data set [1] has as its system APPswe/PS1dE9 mice. The data set can be described thus: Behavioral studies (maze, fear conditioning) in APPswe/PS1dE9 mice. The format is in vivo, mouse. The method, then:
The experiments were performed at Pennington Biomedical Research Centre (PBRC) of Lousiana State University, Baton Rouge, Lousiana and were approved by the Institutional Animal Care and Use Committee (IACUC) of PBRC.
The APPswe/PS1dE9 mice were generated against a C57/BL6J background by breeding either +/+ males or females with −/− females or males, respectively.
Memantine (10 mg/kg) and both doses of QC-199 (15 mg/kg & 30 mg/kg) were prepared in batches and frozen for later use. Each compound was weighed and dissolved in injectable sterile saline solution. Memantine was prepared at a concentration of 1 mg/ml, the 15 mg/kg dose of QC-199 at a volume of 15 mg/10 ml, and the 30 mg/kg dose of QC-199 at a volume of 30 mg/10 ml. The compounds were prepared in this volume so that the mice could easily be injected based on their body weight, e.g., a 35 gram mouse was injected with 0.35 ml dosing solution.
Memantine and QC-199 dosing solutions were administered to mice via i.p. injections. The mice were weighed 3 times/week and were injected with a volume that matched their body weight. The mice were injected daily and the injection located was alternated each day to avoid potential complications from injection in the same location on a daily basis.
After reaching their respective treatment duration, the wild type and APP/PS1 double transgenic mice were run through the STM and fear conditioning. The STM consisted of one day of straight run training (running down an alley from the start box to the goal box). This phase was implemented to establish the contingency that moving forward would provide escape into the dark and dry goal box. The mice were required to reach a criterion of completing the straight run in 15 sec or less on 7 out of 9 trials over a maximum of 15 trials. […] The following day each mouse was administered 15 trials in the STM with approximately 7-10 min between each trial where they were placed into a holding cage with a towel. The latency to reach the goal box and the number of errors committed were the dependent measures of learning. However, in our experience, errors committed is much more indicative of learning and is reported for this project. Pictures of the straight run (A) and maze (B) are shown in FIG. 42, along with a schematic (C) of the maze indicating the correct path. The data from the maze was collapsed into blocks of 5 trials for data summary and presentation.
Med Associates Inc.'s MED-VFC-NIR-M NIR Video Fear Conditioning System for Mouse, Pavlovian fear conditioning was conducted after the STM. On Day 1 the mice were placed in Context 1 and given 5 tone+shock pairings. On day 2 the mice were placed back into Context 1 and their freezing response to being placed back into the original context where fear conditioning occurred was measured. Freezing is operationally defined as the cessation of all movement except that required for respiration. Freezing was measured over 10 minutes, and data were summarized in 1-min intervals. On day 3 the mice were placed into a novel context (Context 2) for 10 min. […] For the final 5 min, the tone paired with shock during fear conditioning was presented. Again, the data was summarized in 1-min intervals.
Maze data was analyzed by two-way ANOVAs to determine treatment group effects for both errors and run time after the data was collapsed into three 5 trial blocks. Planned comparisons of transgenic mice treated with saline with each of the drug treatments, memantine or QC-199 at 15 mg/kg/day and 30 mg/kg/day were conducted to evaluate group differences in the maze at each trial block and both tone and contextual fear conditioning tests. The critical a level was set at 0.05 for all statistical tests. The values in FIGS. 46A-46C represent the means±S.E.M. The data was analyzed using the SPSS statistical program version 11.0. […]

For data set [2], the target named is T1, HO-1 (rat spleen) (Rattus norvegicus, UniProt P06762).
T1 construct: Spleen microsomes were used as a source of HO-1; from tissue; host or cells: spleen microsomal fraction of adult male Sprague-Dawley rats
T1 sequence (P06762 1-289): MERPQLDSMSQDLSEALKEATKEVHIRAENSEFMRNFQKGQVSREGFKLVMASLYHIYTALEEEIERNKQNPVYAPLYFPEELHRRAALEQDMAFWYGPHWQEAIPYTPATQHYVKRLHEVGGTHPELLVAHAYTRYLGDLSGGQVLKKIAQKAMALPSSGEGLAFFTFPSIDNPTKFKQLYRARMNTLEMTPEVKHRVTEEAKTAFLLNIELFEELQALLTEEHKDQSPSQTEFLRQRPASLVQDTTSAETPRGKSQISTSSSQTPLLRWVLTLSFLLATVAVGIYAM
Put plainly: HO enzymatic activity in rat spleen microsomal fraction (CO formed from methemalbumin, gas chromatography). Format: biochemical. The conditions noted are these: rat spleen microsomes, average ± standard deviation of replicate experiments; for IC50: read-out: IC50 HO-1 (rat spleen)/μM.

For data set [3], the target named is T2, HO-2 (rat brain) (Rattus norvegicus, UniProt P23711).
T2 construct: brain microsomes were used as a source of HO-2; from tissue; host or cells: brain microsomal fraction of adult male Sprague-Dawley rats
T2 sequence (P23711 1-315): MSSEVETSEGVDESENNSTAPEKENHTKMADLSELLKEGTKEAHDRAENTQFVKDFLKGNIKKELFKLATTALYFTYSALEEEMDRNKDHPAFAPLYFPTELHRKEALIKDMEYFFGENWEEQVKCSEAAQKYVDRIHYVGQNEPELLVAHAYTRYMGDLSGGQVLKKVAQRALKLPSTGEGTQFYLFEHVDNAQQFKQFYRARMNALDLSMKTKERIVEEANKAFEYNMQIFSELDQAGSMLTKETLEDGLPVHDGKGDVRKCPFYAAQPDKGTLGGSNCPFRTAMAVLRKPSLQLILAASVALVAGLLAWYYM
The data set can be described thus: HO enzymatic activity in rat brain microsomal fraction (CO formed from methemalbumin, gas chromatography). The conditions noted are these: rat brain microsomes, average ± standard deviation of replicate experiments; for IC50: read-out: IC50 HO-2 (rat brain)/μM. Format: biochemical.

Where a name gives a salt, the structure may show the parent alone. Some results are limits rather than exact numbers.

As a reminder, the melting point is the temperature, or range, at which the solid turns liquid. `Cl.Clc1ccc(CC[C@@]2(Cn3ccnc3)OC[C@@H](CSC3CCCCC3)O2)cc1` yielded a melting point of 172 to 173 °C.

The compound `Cl.Clc1ccc(CC[C@@]2(Cn3ccnc3)OC[C@@H](COc3ccc(Br)cc3)O2)cc1` (stereo in doubt) came in with a melting point of 55 to 57 °C.

In turn, `Cl.c1ccc(CCC2(Cn3ccnc3)OCCO2)cc1` registered a melting point of 164 to 165 °C.

`C[C@H]1CO[C@@](CCc2ccc(Cl)cc2)(Cn2ccnc2)O1.Cl` yielded a melting point of 148 to 149 °C.

With `Cl.FC(F)(F)c1ccc(SC[C@@H]2CO[C@@](CCc3ccc(Cl)cc3)(Cn3ccnc3)O2)nc1`, the melting point lay in the range of 156 to 157 °C.

For the compound `Cl.Clc1ccc(CC[C@@]2(Cn3ccnc3)OC[C@H](COc3ccc(C45CC6CC(CC(C6)C4)C5)cc3)O2)cc1`, the melting point fell in the range of 132 to 134 °C.

`C[C@@H]1CO[C@](CCc2ccc(Cl)cc2)(Cn2ccnc2)O1.Cl` yielded a melting point of 152 to 153 °C.

For the compound `Cl.Oc1ccc(OC[C@H]2CO[C@@](CCc3ccc(Cl)cc3)(Cn3ccnc3)O2)cc1`, the melting point is 128 to 130 °C.

The compound `Cl.Clc1ccc(CC[C@@]2(Cn3ccnc3)OC[C@@H](CSc3ccc(Cl)cc3)O2)cc1` showed a melting point of 128 to 129 °C.

As for `Cl.Clc1ccc(CC[C@@]2(Cn3ccnc3)OC[C@@H](CSc3cccc(Br)c3)O2)cc1`, the melting point was 128 to 129 °C.

Compound `COc1ccc(SC[C@@H]2CO[C@@](CCc3ccc(Cl)cc3)(Cn3ccnc3)O2)cc1.Cl` returned a melting point of 139 to 140 °C.

`Cl.Clc1ccc(CC[C@@]2(Cn3ccnc3)OC[C@@H](COc3ccc(I)cc3)O2)cc1` (stereo in doubt) came in with a melting point of 113 to 114 °C.

With `CC12CC3CC(C)(C1)CC(N)(C3)C2` [Memantine, reference compound], the “effect on maze errors and contextual fear conditioning (summary)” value in data set [1] (Memantine, QC-199 15 mg/kg and 30 mg/kg, dtg mice) was “positive effect”. Also, the “maze errors vs saline-treated APP/PS1 mice” value in data set [1] (QC-199 15 mg/kg/day i.p., Memantine 10 mg/kg i.p., improved at Trial Blocks 2 and 3, not 1) is reported as “improved maze”. In addition, in data set [1] (QC-199 15 and 30 mg/kg/day, Memantine 10 mg/kg, Time Blocks 1-4), the “contextual fear conditioning (freezing) vs saline-treated APP/PS1 mice” value is on record as “no significant differences”. In addition, in data set [1] (QC-199 15 and 30 mg/kg/day, Memantine 10 mg/kg, Trial Blocks 3 and 4), the “tone fear conditioning (freezing) vs saline-treated APP/PS1 mice” value is “no significant differences”.

The compound `Cl.OC(CCc1ccc(F)cc1)Cn1ccnc1` (racemic) registered a melting point of 86 to 87 °C.

`Cl.Clc1ccc(CC[C@@]2(Cn3ccnc3)OC[C@@H](CSc3ccc(Br)cc3)O2)cc1` yielded a melting point of 141 to 142 °C.

Consider `Cl.Fc1ccc(SC[C@@H]2CO[C@@](CCc3ccc(Cl)cc3)(Cn3ccnc3)O2)cc1`, for which the melting point is 112 to 113 °C.

Regarding `C[C@H]1CO[C@](CCc2ccc(Cl)cc2)(Cn2ccnc2)O1.Cl`, the melting point lay within 172 to 173 °C.

`Cl.Fc1ccc(CCC2(Cn3ccnc3)OCCO2)cc1` came in with a melting point of 153 to 154 °C.

Take `Cc1nccn1CC1(CCc2ccc(Cl)cc2)OCCO1.Cl`: the “IC50 HO-1 (rat spleen)/μM” value in data set [2] was “INACTIVE”. Further, the “IC50 HO-2 (rat brain)/μM” value in data set [3] was “INACTIVE”.

Regarding `c1ccc2[nH]c(NC3CCNCC3)nc2c1`, the IC50 in data set [2] and in data set [3] was greater than 100 µM in each case.

With `O=C(Cn1ccnc1)c1cccs1`, the IC50 in data set [2] and in data set [3] was greater than 100 µM in each case.

Regarding `O=C(Cn1ccnc1)c1cccc(Br)c1` [1-(3-Bromo-phenyl)-2-(1H-imidazol-1-yl)-ethanone hydrochloride], the IC50 in data set [2] stood at 2.1 ± 0.1 µM; in data set [3], 35 ± 3 µM.

Turning to `Nc1ccccc1SC[C@@H]1CO[C@@](CCc2ccc(Cl)cc2)(Cn2ccnc2)O1` [(2R,4S)-2-[2-(4-chlorophenyl)ethyl]-2-[(1H-imidazol-1-yl)methyl]-4-[{(2-aminophenyl)thio}meth-yl]-1,3-dioxolane dihydrochloride], the IC50 in data set [2] came to 4 ± 2 µM; in data set [3] it was 42 ± 28 µM.

As for `c1ccc(CCC2(Cn3cnnn3)OCCO2)cc1` [1-(2-Phenethyl-[1,3]dioxolan-2-ylmethyl)-1H-tetrazole hydrochloride], the IC50 in data set [2] was 39 ± 5 µM; in data set [3], greater than 100 µM.

For `OC(CCc1ccccc1)Cn1ccnn1` (racemic) [(±)-4-phenyl-1-[1,2,3]triazol-1-yl-butan-2-ol hydrochloride], the IC50 in data set [2] is 44 ± 1 µM; in data set [3], greater than 100 µM.

In the case of `CC(=O)Cn1ccnc1` [1-(1H-Imidazol-1-yl)-propan-2-one], in data set [2], the “IC50 HO-1 (rat spleen)/μM” value is recorded as “Not Active”. In data set [3], the “IC50 HO-2 (rat brain)/μM” value is listed as “Not Active”.

For `c1ccc(CCC2(Cn3nccn3)OCCO2)cc1` [2-(2-Phenethyl-[1,3]dioxolan-2-ylmethyl)-2H-[1,2,3]triazole], the IC50 in data set [2] and in data set [3] was greater than 100 µM each time.

Regarding `c1ccc(CNCCCn2ccnc2)cc1`, the IC50 in data set [2] and in data set [3] was greater than 100 µM throughout.

Regarding `O=C(CCc1ccc(I)cc1)Cn1ccnc1` [4-(4-iodophenyl)-1-(1H-imidazol-1-yl)butan-2-one hydrochloride], the IC50 came out at 0.11 ± 0.06 µM in data set [2] and 1.8 ± 0.7 µM in data set [3].

These data come from patent US20140155445A1, “Compounds and Methods for Treating Cancer and Diseases of the Central Nervous System” (Osta Biotechnologies Inc., priority 2007, published 2014).
